Source: PubChem BioAssay AID2253 (Southern Research Specialized Biocontainment Screening …, 2010)

Test system: THP-1 viability, CellTiter-Glo luminescence, 72 h
Experiment: THP-1 cell cytotoxicity, dose response, cytotoxicity control for Salmonella PhoP regulon inhibitors, S. typhimurium screen hits (AID 2253)

Compound	EC50 [µM]
O=C1c2ccccc2-c2onc3ccc(NCc4ccco4)c1c23	17.9
Nc1nc2ccccc2n1CCOc1ccccc1Cl	12.8
CC(C)[C@@H]1CC[C@@H](C)C[C@H]1OC(=O)C[n+]1cc(-c2ccc(Cl)cc2)n2c1CCCCC2	2.3
Cc1nn(-c2ccccc2)c(C)c1/C=N/NC(=O)c1cc(-c2cccc3ccccc23)n[nH]1	17.4
c1ccc(Nc2nc3ccccc3[nH]2)nc1	30.6
C/C(CC(=O)Nc1ccc(Cl)c(C(F)(F)F)c1)=N\NC(=O)c1cccc(O)c1	24.2
Clc1ccc(OCCCNCc2ccccc2)c(Br)c1	11.5
CCCCCOc1ccc(Br)cc1CSC(=N)N	1.86
c1ccc(-c2nnc(-c3ccccn3)nc2NC2CCCCC2)cc1	1.37
CC(=O)NC(c1ccc(Cl)cc1Cl)c1ccc2cccnc2c1O (stereo not given)	0.28
CC(CO)(CO)NCc1ccc(-c2ccccc2)cc1	15
O=[N+]([O-])c1cc(Cl)c2cccnc2c1O	27.7
Clc1ccc(-c2csc3ncnc(N4CCc5ccccc5C4)c23)cc1	44
O=C(C[n+]1cc(-c2ccc(Cl)c(Cl)c2)n2c1CCC2)N1c2ccccc2Sc2ccccc21	17.8
O=C(N/N=C/c1ccc(O)cc1O)/C(=C/c1ccccc1)CCO	4.05
CCCCCCCCCCCCCCCCn1cc[n+](C)c1	0.37
Cc1cc(C)cc(OC(=O)CS(=O)c2ccc(C(F)(F)F)cc2[N+](=O)[O-])c1 (stereo not given)	5.98
Oc1ccc(CN2CCc3ccccc3C2)c2cccnc12	3.39
O=C(NNc1c2ccccc2nc2ccccc12)c1cccc(O)c1	23.2
CCOC(=O)CSc1n[nH]c(NC(=O)c2cccc(C)c2)n1	48.7
NNC(=O)CNC(c1ccccc1)c1cc(Br)ccc1NC(=O)c1ccc(Br)cc1 (stereo not given)	39.5
COc1ccc(/C=N/Nc2cc(C)nc3c(C)cccc23)cc1	7.25
CCOc1ccc(Nc2c3ccccc3nc3ccccc23)cc1	1.24

Compound	EC50 [µM]
CCOc1ccccc1NS(=O)(=O)c1ccc(Br)s1	40.5
Cc1nc2c(=O)n(C)c(=O)nc-2n(C)n1	1.22
Cc1ccsc1C=Nc1ccc(O)cc1	25.9
CCOc1cccc(CNc2ccc(O)cc2)c1OCc1ccc(Cl)cc1Cl	26.9
Cc1ccc(-c2cc(-c3ccc(Cl)cc3)c(C#N)c(N)n2)o1	26.2
Cc1ccc(Nc2cc(C)nn2-c2nc(C)cc(=O)[nH]2)cc1	0.62
Cc1ccc(-c2cc(C(=O)Nc3nccs3)c3ccccc3n2)o1	31.7
O=CN/N=C/c1c(O)ccc2ccccc12	5.18
O=c1[nH]c(NNC(=S)NCc2ccccc2)nc2c1C1(CCCCC1)Cc1ccccc1-2	45.1
CC1(C)CC(=O)C2=C(C1)N(c1ccc(F)cc1)C(N)=C(C#N)C2c1cccs1 (stereo not given)	35.6
CCN(CC)S(=O)(=O)c1cccc(NC(=O)Nc2cccc(C(F)(F)F)c2)c1	5.09
Cc1ccc(NC(=S)NC(NC(=O)c2ccco2)C(Cl)(Cl)Cl)cc1 (stereo not given)	19.6
COc1ccc(CNC[C@@H](CCCCN(C)Cc2ccc(OC)cc2)N2C[C@H](c3ccccc3)N(CCc3ccc(Cl)c(Cl)c3)C(=O)C2=O)cc1	3.93
O=C(NC(c1ccc(Cl)cc1)c1c(O)ccc2ccccc12)c1ccccc1 (stereo not given)	8.91
Cc1cc(N/N=C/c2cccc(Cl)c2)nc(NCc2ccccc2)n1	23.5
O=Cc1ccc(O)c2ncccc12	3.79
CC1CCC(C(C)C)C(OC(=O)Cn2c(COc3ccccc3)[n+](C)c3ccccc32)C1 (stereo not given)	2.6
OCCN1CCN(Cc2cc(Cl)c3cccnc3c2O)CC1	12
O=C(Nc1ccc(Cl)c(Cl)c1)Nc1ccccc1O	21.1
COC(=O)C(C)NC(=S)N1CCN(c2c(F)cc3c(=O)c(C(=O)O)cn(C4CC4)c3c2OC)CC1C (stereo not given)	20
C=CS(=O)(=O)c1ccc(Oc2ccc(S(=O)(=O)C=C)cc2)cc1	1.4
Cc1[nH]c2ccccc2c1/C=N/Nc1ccc(F)cc1F	48.5
O=C1C=C(N2CCOCC2)c2ccccc2C1=O	6.88

Compound	EC50 [µM]
CC1CCC(C(C)C)C(OC(=O)Cn2c(-c3ccc(Cl)cc3)[n+](C)c3ccccc32)C1 (stereo not given)	2.13
O=S(=O)(c1ccccc1)N(CC(O)Cn1c2ccccc2c2ccccc21)c1ccccc1 (stereo not given)	11.1
Cc1ccc(N=Nc2ccc(O)c(/C=N\NC(=O)c3ccc(N)cc3)c2)cc1C	3.29
Cc1cc(-c2nnc(-c3ccccc3)c(-c3ccccc3)n2)c(C)o1	40.3
Nc1ccc2c(c1)C(=O)C(=O)c1ccccc1-2	2.23
CCCCNCCCOc1cccc(Cl)c1Cl	29.2
COc1ccc(/C=C/c2nc3ccccc3n2Cc2ccccc2OC)cc1	13.2
O=C(c1ccccc1)C(CN1CCCC1)c1ccccc1 (stereo not given)	5.56
C=CCNc1ncnc2c1[nH]c1ccc(Cl)cc12	12.2
CN(c1ccccc1)S(=O)(=O)c1cc(C(=O)Nc2nc3ccccc3[nH]2)ccc1Cl	24.1
O=S1(=O)N=C(N/N=C/c2ccccn2)c2ccccc21	22.9
N#Cc1c(NC(=O)c2cnccn2)sc2c1CCCC2	9.25
Oc1ccc(/C=N/Nc2nccnc2Cl)c(O)c1	1.39
O=S(=O)(Nc1cc(Sc2ncn[nH]2)c(O)c2ccccc12)c1ccccc1	5.35
CCCCCn1c(N)c(C(=O)NCc2cccs2)c2nc3ccccc3nc21	15.4
O=C(N/N=C/c1sc2ccccc2c1O)c1cccc2ccccc12	3.51
CCCCCCCCCCOC(=O)Cn1c(COc2ccc(C)cc2)[n+](C)c2ccccc21	3.37
Oc1c(C(c2ccccn2)N2CCOCC2)ccc2cccnc12 (stereo not given)	13.8
NCC12CC3CC(C1)CC(c1ccc(Br)cc1)(C3)C2	8.36
CCc1ccc(C(c2c(C)nn(-c3ccccc3)c2N)c2c(C)nn(-c3ccccc3)c2N)cc1	46.1
COc1ccc(C(=O)Oc2c(CN3CCOCC3)cc(Cl)c3cccnc23)cc1	6.67
Nc1cc(Cl)c2nonc2c1[N+](=O)[O-]	2.24
CCCCCCCCCC[N+](C)(C)CC/C=C1/c2ccccc2Sc2ccc(Cl)cc21	1.67

Compound	EC50 [µM]
C#CCOCCOCCOCCNc1nc(N2CCN(C(=O)CCCCCCCCCCNC(=O)[C@H]([C@@H](C)CC)n3cc(CCCCN=C(N)N)nn3)CC2)nc(N2CCN(C(=O)CCCCCCCCCCNC(=O)[C@H]([C@@H](C)CC)n3cc(CCCCN=C(N)N)nn3)CC2)n1	4.39
CCCCCc1ccc(OCCC[n+]2ccccc2)c(CCCCC)c1	2.78
O=C(N/N=C/c1c[nH]c2ccccc12)c1cc(-c2ccc3ccccc3c2)n[nH]1	3.02
Cc1ccccc1Cn1c(=N)n(CC(=O)c2ccco2)c2ccccc21	22.8
CCCCCCCCNC(C)C(O)c1ccc(SC(C)C)cc1 (stereo not given)	10.7
COc1cc(NC(=O)Nc2cccc(Cl)c2)c(OC)cc1NC(=O)CN1CCCCC1	15.5
c1ccc2c(C3=NNC(=NC4CC4)SC3)c[nH]c2c1	17.2
Oc1cccc(/C=N/Nc2ccc(Cl)nn2)c1O	0.66
CCN1/C(=C/C=C/C=C/c2sc3ccccc3[n+]2CC)Sc2ccccc21	4.62
CCCC(=O)NC(c1cccs1)c1cc([N+](=O)[O-])c2cccnc2c1O (stereo not given)	7.09
Oc1ccc(-c2n[nH]c(=S)n2-c2ccc3c(c2)OCCO3)c(O)c1	33.8
O=C(c1ccc(F)cc1)C(CN1CCOCC1)c1ccccc1 (stereo not given)	6.92
COc1cc([N+](=O)[O-])cc(/C=N/NC(=O)c2cccnc2)c1O	32
COc1ccc(Nc2ccc3c(c2)=NC2(CCCCC2)[N+]=3[O-])cc1	4.59
O=C(Cn1nc(CNc2ccc(Cl)cc2)[n+]2c1CCCCC2)c1ccc(Br)cc1	11.6
COc1ccccc1-c1c(C#N)c(N)nc2c1CCc1ccccc1-2	13.2
COc1ccc(C)cc1NC(=O)C(Sc1nnc(-c2ccncc2)n1-c1ccc(Cl)cc1)c1ccccc1 (stereo not given)	22
c1ccc2c(c1)ncn2CCCCOc1ccc2c(c1)CCC2	15
CC1(C)SC(=S)N(NC(=O)Nc2ccccc2)C1N(O)C(=O)Nc1ccccc1 (stereo not given)	37.8
CCCCCCC(=O)N(O)C1CC(=O)N(c2ccc(C)cc2)C1=O (stereo not given)	30.6
Cc1cc(C2=NNC(=NC3CC3)SC2)c(C)n1Cc1ccco1	5.69
CCOc1ccc(/C=C/C(=O)Nc2ccc(OC)cc2[N+](=O)[O-])cc1	27.5
Oc1ccc(/C=N/NC(=S)Nc2cccnc2)c(O)c1	3.21

Compound	EC50 [µM]
CN(CCO)c1cc(Sc2nc3ccccc3s2)c2nonc2c1[N+](=O)[O-]	15.8
c1ccc(Nc2ccnc(Nc3ccccc3)n2)cc1	35
COc1ccccc1-n1c(SCc2cc(=O)oc3cc(O)ccc23)nc2ccccc2c1=O	21.6
CCOC(=O)C[n+]1c(C)sc2ccc(OC)cc21	25.8
O=C(N/N=C/C1C(c2ccccc2)C1(Cl)Cl)c1cccc(Cl)c1 (stereo not given)	44
c1ccc(-c2cccc(-c3ccccn3)n2)nc1	0.45
Cc1ccc(Nc2cc(C)c3c(O)cccc3n2)cc1C	15.2
CCCCCCCCCCOC(=O)Cn1c(COc2ccccc2OC)[n+](C)c2ccccc21	2.2
CCOC(=O)N1CCN(S(=O)(=O)c2ccc(C(=O)NNc3nc4c(C)cc(C)cc4s3)cc2)CC1	3.28
Cc1ccc(S(=O)(=O)/N=C2/C=C(Sc3ncn[nH]3)C(=O)c3ccccc32)cc1	2.13
CC(=O)NC(c1cccc([N+](=O)[O-])c1)c1ccc2cccnc2c1O (stereo not given)	0.49
CCOC(=O)COc1ccccc1/C=C\[N+](=O)[O-]	2.85
Cc1ccc(Nc2nc(Cl)nc(N(C)C#N)n2)cc1	13.6
Cc1cccc(NC(=O)Cn2c(/C=C/c3ccccc3)nc3ccccc32)c1	45
O=[N+]([O-])c1cc(O)c2ncccc2c1	6.48
Cc1cc(-c2csc(N)n2)c(C)n1-c1ccccc1	16.9
O=c1c2c(-c3ccccc3)csc2nc2c3ccccc3c(NCCN3CCOCC3)nn12	3.11
OC1(c2cccc(C(F)(F)F)c2)CCN(c2ncnc3c2[nH]c2ccccc23)CC1	17.6
C/C(=N\Nc1ncnc2sc(C)c(C)c12)c1ccccn1	< 0.1
CCCCCCCCn1c2c(c(=N)c3c1CCC3)CCCC2	0.78
Cn1c(-c2ccc3c(c2)OCO3)cnc1NCc1cccc(Cl)c1	15.5
N#C/C(=C\c1c(Cl)cccc1Cl)c1nc2ccccc2[nH]1	27.9
Cc1cc2cc(CCNC(=O)c3cccs3)c(=O)[nH]c2cc1C	17.2
